A word on the inhibition: it is the drop in the measured response relative to a control, in per cent.

The results in this text go back to article PMC4473678, “Swedish mutant APP-based BACE1 binding site peptide reduces APP β-cleavage and cerebral Aβ levels in Alzheimer’s mice” (Scientific Reports, 2015).

The subject of series [1] is recombinant BACE1. The series is described as follows: BACE1 activity (FRET) assay, cell-free. In kind it is biochemical. As for the experimental part: The BACE1 inhibiting activity of APP-based BACE1 site binding peptides were determined using a fluorescence resonance energy transfer (FRET) assay (Pan Vera Co., Madison, WI), which employs a recombinant baculovirus-expressed BACE1 and a specific substrate (Rh-[…]-quencher) that is based on the APPswe mutation. This specific peptide substrate becomes highly fluorescent upon enzymatic cleavage. […] Then, 10 μL of BACE1 stop buffer (2.5 M sodium acetate) was added to the mixture. Fluorescence was read using a fluorometer, with excitation at 545 nm and emission at 585 nm.

The test system of series [2] is CHO/APPswe cells. The series is described as follows: APP processing in CHO/APPswe cells (WB, ELISA). In kind it is cell-based, Chinese hamster. The conditions noted are these: 0 to 20 μM, 24 h. As for the experimental part:
Chinese hamster ovary (CHO) cells engineered to express human APPwt (CHO/APPwt cells) or human APPswe (CHO/APPswe cells) were kindly provided by Dr. Stefanie Hahn and Dr. Sascha Weggen (University of Heinrich Heine, Dusseldorf, Germany). As described in our recent report, these cells were cultured in Dulbecco’s modified Eagle’s medium with 10% fetal bovine serum, 1 mM sodium pyruvate and 100 U/mL of penicillin/streptomycin.
Following application of blocking buffer, these cells were stained with mouse anti-BACE1 and anti-biotin antibodies overnight at 4 °C for immunocytochemical analysis. In order to determine the inhibitory effects of TAT-APPsweBBP on BACE1-mediated APP β-cleavage and subsequent Aβ production, both CHO/APPwt and CHO/APPswe cells were plated in 24 well-plates (3×10^5/well) and treated with TAT-APPsweBBP at 0 to 20 μM for 24 h. The cultured media were collected for Aβ and sAPPα analysis by ELISA and WB. Cell lysates were also prepared for analysis of APP amyloidogenic processing by WB.
WB analysis was performed as previously described. Briefly, the proteins from the various cell-free suspensions, cell lysates and brain homogenates were electrophoretically separated using 10% bicine/tris gel (8 M urea) for proteins less than 5 kD or 10% tricine/tris gels for larger proteins. Electrophoresed proteins were transferred to polyvinylidene difluoride membranes (Bio-Rad, Richmond, CA), washed and blocked for 2 h at room temperature in Tris-buffered saline containing 5% (w/v) nonfat dry milk (TBS/NFDM). After blocking, membranes were hybridized for 2 h with various primary antibodies, washed and incubated for 1 h with the appropriate HRP-conjugated secondary antibody in TBS/NFDM. Blots were developed using the luminol reagent (Thermo Fisher Scientific, Waltham, MA).
Mouse brains were homogenized in ice-cold lysis buffer for 30 s using a Minilys tissue homogenizer (Bertin Technologies, Montigny-le-Bretonneux, France) set at high speed, allowed to stand for 15 min at 4 °C, and centrifuged at 15000 rpm for 30 min. Soluble Aβ1−40/42 species and sAPPα were directly detected in cultured cell media or brain homogenates using the Aβ1−40/42 (Invitrogen) and sAPPα ELISA kits (IBL-America, Minneapolis, MN). Detergent-insoluble total […] species were detected in brain by extracting pellets in 5 M guanidine HCl buffer, followed by a 1:20 dilution in lysis buffer.
In general terms: ELISA stands for enzyme-linked immunosorbent assay.

For series [3], the system named is cortex and hippocampus of 5XFAD mice. In words: Extracellular and intracellular peptide levels in brain (WB). The class given is in vivo, mouse. The following applies: i.p., *P < 0.05, **P < 0.01, listed as TAT-APPsweBBP. As for the experimental part: For specific extraction of extracellular versus intracellular proteins, hemibrains were harvested and placed in 500 μl of solution containing 50 mM Tris-HCl, pH 7.6, 0.01% NP-40, 150 mM NaCl, 2 mM EDTA, 0.1% SDS, 1 mM phenylmethylsulfonyl fluoride, and protease inhibitor cocktail (Sigma) as previously describe. Soluble, extracellular proteins were collected from mechanically homogenized lysates after centrifugation for 5 min at 3000 rpm. Cytoplasmic proteins were extracted from cell pellets mechanically dissociated with a micropipettor in 500 μl of TNT buffer (50 mM Tris-HCl, pH 7.6, 150 mM NaCl, and 0.1% Triton X-100) after centrifugation for 90 min at 13,000 rpm. Insoluble material was incubated with 20 μl of 70% formic acid, mechanically dissociated with a micropipette, gently agitated for 1 h, and buffered with 380 μl of 1 M Tris-HCl, pH 8.0. Samples were centrifuged for 90 min at 13,000 rpm, and supernatants were collected for analysis.
WB analysis was performed as previously described. Briefly, the proteins from the various cell-free suspensions, cell lysates and brain homogenates were electrophoretically separated using 10% bicine/tris gel (8 M urea) for proteins less than 5 kD or 10% tricine/tris gels for larger proteins. […]

In series [4] the test system is 5XFAD mice. In words: β-amyloid immunohistochemistry (4G8), 5XFAD mice. In kind it is in vivo, mouse. The following applies: 100 nmol/kg i.p. daily, 8 weeks, RSC, EC and H regions, n = 10, 5 female/5 male, listed as TAT-APPsweBBP. The protocol: Transgenic AD mice [5XFAD; B6SJL-Tg(APPSwFlLon,PSEN1*M146L*L286V) 6799Vas/Mmjax] at 2.5 months of age were obtained from the Jackson Laboratory (Bar Harbor, ME) and housed and maintained in the Animal Facility of College of Medicine at University of South Florida (USF). The mice at 3.5 months of age were treated with TAT-APPsweBBP, TAT peptide (100 nmol/kg in 100 μL PBS) or PBS (100 μL) daily by intraperitioneal injection (i.p.) for eight consecutive weeks. The mice were subjected to behavioral testing after 8-week treatment and then euthanized for immunohistochemical, WB and ELISA analyses. Animals were housed and maintained at USF and all experiments were in compliance with protocols approved by USF Institutional Animal Care and Use Committee. All methods were performed in accordance with relevant guidelines and regulations.
For paraffin brain tissues, we sectioned five coronal sections per region with a 100-μm interval and a thickness of 5-μm for retrosplenial cortex (RSC), entorhinal cortex (EC), and hippocampus (H), located at bregma −2.92 to −3.64 mm. […] Images were acquired as digitized tagged-image format files (to retain maximum resolution) using a BX60 microscope with an attached CCD camera system (DP-70, Olympus, Tokyo, Japan), and digital images were routed into a Windows PC for quantitative analyses using SimplePCI software (Hamamatsu Photonics, Hamamatsu, Shizuoka, Japan). […]

Setting [5] is: *P < 0.05, **P < 0.01, three independent experiments, each triplicated.

“Also recorded” adds a separate entry of the source.

For “YGRKKRRQRRREISEVNLDAEFR [APPsweBBP conjugated with the membrane fusion fragment of HIV-1 Tat protein]”, the “BACE1 inhibition (result in words)” value in series [1] (FRET assay, APPsweBBP or TAT-APPsweBBP at 0.05, 0.5, 5 and 20 μM (Fig. 1)) is recorded as “competitively inhibits BACE1 activity; also recorded: much higher inhibiting activity than its prototype peptide”. Besides, the inhibition in series [1] (FRET assay, peptide final concentration 20 μM, 90 min, room temperature, read-out: percentage inhibition of BACE1) is 93.2 ± 2.73%. Moreover, the “% of Inhibition of BACE1” value in series [1] (peptide final concentration 20 μM, FRET substrate Rh-EVNLDAEFK-quencher, 90 min, room temperature, dark, ex 545/em 585 nm, mean ± SD) worked out at 93.23 ± 2.73%. In series [2], the “holo APP expression by WB” value is reported as “leaving holo APP expression unaltered”, the “sAPPα by WB” value is “promoting” and the “β-CTF by WB” value is given as “markedly inhibited”. In series [2] (setting [5]), the “Aβ1−40/42 by ELISA” value is listed as “significantly decreased” and the “sAPPα by ELISA” value is “increased sAPPα levels in a dose-dependent manner”. Further, in series [2] (listed as TAT-APPsweBBP), the “Aβ by WB” value is “markedly decreased Aβs; also recorded: markedly inhibited”. For the same sequence, the “intracellular versus extracellular distribution in brain” value in series [3] is recorded as “higher intracellular TAT-APPsweBBP distribution; also recorded: prefers to enter into cytoplasm of brain cells”. In addition, the “β-amyloid plaques / 4G8 immunoreactive area” value in series [4] was “greatly reduced; also recorded: markedly reduced β-amyloid plaques; also recorded: significant differences between TAT-APPsweBBP and TAT peptide treatment groups (**P < 0.01)”.
